Key:
[1] = Cytotoxicity assay (MTT) in Vero cells; assay type: cell-based; conditions: African green monkey; for CC50 at 24 h: 24 h incubation with the compound only; for CC50 at 72 h: 72 h incubation with the compound only
Protocol: (§1) Vero cells were seeded in 96-well plates in 24 h before the assay. On the assay day, the cells were washed with saline and tested compounds in appropriate concentrations (300–3 μg/mL) in MEM without FBS were added to cells. No compounds were added to virus control wells. The plates were incubated for 1 h at 37 °C at 5% CO2. The cells were then infected with CVB3 Nancy (m.o.i range of 1–0.001) and incubated for 72 h at 37 °C at 5% CO2. No virus was added to the cytotoxicity control wells. Cell viability was then assessed using an MTT test with the following procedure. The cells were washed with saline, and a solution of 3-(4,5-dimethylthiazolyl-2) 2,5-diphenyltetrazolium bromide (ICN Biochemicals Inc., Aurora, OH, USA) ([…]) in MEM was added to the wells (100 µL per well). After 2 h of incubation at 37 °C in 5% CO2, the supernatant from wells was discarded, and the formazan residue was dissolved in DMSO (100 µL per well). The optical density of cells was then measured on a Multiskan multifunctional reader (Thermo Fisher Scientific, Shanghai, China) at a wavelength of 540 nm.
The microtetrazolium test (MTT) was used to study the cytotoxicity of the compounds. The permissive cell line Vero was seeded in 96-well plates in Eagles minimal essential medium (MEM) supplemented with 10% FBS. After 24 h, the media were removed, and the wells were washed with saline. Compounds were dissolved in DMSO, and a series of two-fold dilutions of each compound in MEM without FBS were prepared and added to the cells in triplicates. […] The MTT was then performed as described above. Next, the optical density of cells was measured on a Multiskan multifunctional reader (Thermo Fisher Scientific, Shanghai, China) at a wavelength of 540 nm and plotted against the concentration of the compounds to generate the dose–response curve. The 50% cytotoxic dose (CC50) of each compound (i.e., the compound concentration that causes the death of 50% of cells in a culture, or decreases the optical density twice, as compared to the control wells) was calculated using a four-parameter logistic nonlinear regression model (GraphPad Prism 6.01).

[2] = test system: Coxsackievirus B3 (Nancy); experiment: Viral yield reduction assay in Vero cells; assay type: cell-based; conditions: for IC50: Enterovirus B, B3 / CVB3, viral yield reduction, Vero cells, CVB3 Nancy at m.o.i. 0.01, 24 h, read-out: IC50 (50% virus-inhibiting concentration); for SI (selectivity index, ratio CC50/IC50): viral yield reduction assay, CC50 24 h / IC50
Protocol: Coxsackievirus B3 (CVB3, strain Nancy) was obtained from the collection of viruses of the Pasteur Institute (St. Petersburg, Russia). The permissive cell line Vero (ATCC #CCL-81) was used in the study. Infectious titers (in a 50%-tissue culture infection dose, TCID50) were determined in Vero cells for CVB3 by endpoint dilution assay using the following procedure. Permissive cells were seeded into 96-wells plates in Eagles minimal essential medium (MEM) supplemented with 5% fetal bovine serum (FBS). After 24 h, the medium was aspirated, the wells were washed with saline, fresh MEM without FBS was added to the wells and the cells were infected with serial tenfold dilutions of virus stocks (100 µL per well, 4 wells for each dilution). The plates were incubated at +37 °C in 5% CO2 and observed daily for cytopathic effect (CPE). After 72 h the viral titer was calculated in TCID50 using the method of Spearmen-Carber.
The antiviral activity of the compounds was evaluated using viral yield reduction assay. The respective permissive cell line Vero was seeded in MEM supplemented with 5% FBS in 24-well plates. When the cell confluence reached 100%, the compounds tested were dissolved in DMSO, and a series of three-fold dilutions of each compound in MEM without FBS was added to the cells, and incubated at 37 °C in 5% CO2. After 1 h, the media were discarded; equal volumes of fresh serial dilutions of each compound and viral suspension in MEM without FBS at […] were added. In control wells, only MEM without FBS was added. No compounds were added in the virus control wells. The plates were incubated at 4 °C for 1 h. The unbound virus was then washed away and, again, three-fold dilutions of each compound (the final concentration 50–0.6 µg/mL) in MEM without FBS were added to the wells. After 24 h of incubation at 37 °C in 5% CO2, the infectious titer of viral progeny (in TCID50) for each compound concentration, cell control, and virus control wells were determined in permissive cell lines by endpoint dilution assay as described above.
The titer of virus progeny was plotted against log concentration of the compounds tested to generate the dose–response curve. The 50% inhibition concentration (IC50) of each compound tested (i.e., the compound concentration that decreases the infectious viral progeny titer twice, as compared to the control wells) was calculated using a four-parameter logistic nonlinear regression model (GraphPad Prism 6.01).

[3] = test system: CVB3 Nancy; experiment: Cytoprotection assay (MTT) in Vero cells infected with CVB3 Nancy; assay type: cell-based, Coxsackievirus B3; conditions: for EC50: Enterovirus B, Vero cells infected with CVB3 Nancy at m.o.i. 0.001, 72 h, MTT, read-out: EC50 (50% cytoprotective concentration); for SI (selectivity index, ratio CC50/IC50): cytoprotection assay, CC50 72 h / EC50
Protocol: as §1
The cytoprotective activity of compounds was considered to be their ability to increase the values of OD compared to control wells (using only a virus, without drugs). Based on the results obtained, the values of IC50, i.e., the concentration of compounds that result in 50% cells protection were calculated for m.o.i. 0.001 using GraphPad Prism 6.01 software.

Structure (SMILES)	melting point	IC50 [2]	CC50 at 24 h [1]	CC50 at 72 h [1]	SI (selectivity index, ratio CC50/IC50) [2]	EC50 [3]	SI (selectivity index, ratio CC50/IC50) [3]
O=C(O)C1CCN(S(=O)(=O)c2ccc(N3C(=O)c4ccccc4C3=O)cc2)CC1 [Compound 2g, 1-((4-(1,3-Dioxoisoindolin-2-yl)phenyl)sulfonyl)piperidine-4-carboxylic acid]	207 to 210 °C	–	–	> 228 µM	–	12.3 ± 2.07 µM	>18.5
NC(=O)c1ccc(NS(=O)(=O)c2ccc(N3C(=O)c4ccccc4C3=O)cc2)cc1 [Compound 2c, 4-(4-(1,3-Dioxoisoindolin-2-yl)phenylsulfonamido)benzamide]	240 to 242 °C	–	–	472 ± 38.2 µM	–	> 475 µM	<1
CCOC(=O)c1ccc(NS(=O)(=O)c2ccc(NC(=O)c3ccccc3C(=O)O)cc2)cc1 [Compound 3, 2-((4-(N-(4-(Ethoxycarbonyl)phenyl)sulfamoyl)phenyl)carbamoyl)benzoic acid]	–	–	–	> 640 µM	–	> 427 µM	>1
CC(=O)Nc1ccc(NS(=O)(=O)c2ccc(N3C(=O)c4ccccc4C3=O)cc2)cc1 [Compound 2f]	220 to 222 °C	–	–	181 ± 19.2 µM	–	> 689 µM	<1
CCOC(=O)c1ccc(NS(=O)(=O)c2ccc(N3C(=O)c4ccccc4C3=O)cc2)cc1 [Compound 2b, Ethyl 4-(4-(1,3-dioxoisoindolin-2-yl)phenylsulfonamido)benzoate]	–	–	–	40 ± 4.12 µM	–	> 444 µM	<1
O=C(O)CCCNS(=O)(=O)c1ccc(N2C(=O)c3ccccc3C2=O)cc1 [Compound 2i, 4-(4-(1,3-Dioxoisoindolin-2-yl)phenylsulfonamido)butanoic acid]	–	37.9 ± 1.08 µM	1260 ± 110 µM	283 ± 31.1 µM	33	< 28.6 µM	>10
N#Cc1ccc(NS(=O)(=O)c2ccc(N3C(=O)c4ccccc4C3=O)cc2)cc1 [Compound 2d, N-(4-Cyanophenyl)-4-(1,3-dioxoisoindolin-2-yl)benzenesulfonamide]	224 to 226 °C	–	–	625 ± 57.5 µM	–	744 ± 67.3 µM	<1
NS(=O)(=O)c1ccc(NS(=O)(=O)c2ccc(N3C(=O)c4ccccc4C3=O)cc2)cc1 [Compound 2e, 4-(1,3-Dioxoisoindolin-2-yl)-N-(4-sulfamoylphenyl)benzenesulfonamide]	261 to 263 °C	–	–	437 ± 35.1 µM	–	> 437 µM	<1

Further lines, with some results ahead:

melting point	IC50 [2]	Structure (SMILES)	CC50 at 24 h [1]	CC50 at 72 h [1]	SI (selectivity index, ratio CC50/IC50) [2]	EC50 [3]	SI (selectivity index, ratio CC50/IC50) [3]
265 to 267 °C	19.6 ± 0.49 µM	O=C(O)c1ccc(NS(=O)(=O)c2ccc(N3C(=O)C4C5CCC(C5)C4C3=O)cc2)cc1 (stereo not shown) [Compound 7d, 4-(4-(1,3-Dioxohexahydro-1H-4,7-methanoisoindol-2(3H)-yl)phenylsulfonamido)benzoic acid]	> 1140 µM	681 ± 54.8 µM	>58	< 8.39 µM	>81.1
284 to 286 °C	–	O=C(O)c1ccc(NS(=O)(=O)c2ccc(N3C(=O)c4cccc5cccc(c45)C3=O)cc2)cc1 [Compound 7e, 4-(4-(1,3-Dioxo-1H-benzo[de]isoquinolin-2(3H)-yl)phenylsulfonamido)benzoic acid]	–	531 ± 48.4 µM	–	> 635 µM	<1
250 to 252 °C	11.1 ± 0.16 µM	O=C(O)c1ccc(NS(=O)(=O)c2ccc(N3C(=O)C4CC=CCC4C3=O)cc2)cc1 (stereo not shown) [Compound 7b, 4-(4-(1,3-Dioxo-3a,4,7,7a-tetrahydro-1H-isoindol-2(3H)-yl)phenylsulfonamido)benzoic acid]	933 ± 75.1 µM	474 ± 38.5 µM	–	< 8.67 µM	>54.6

Reference: PMC9694965, “Design of 4-Substituted Sulfonamidobenzoic Acid Derivatives Targeting Coxsackievirus B3” (Life, 2022)
